From ChEMBL document CHEMBL1158199, “Constituents of Ardisia japonica and their in vitro anti-HIV activity” (J Nat Prod, 1996) come the findings set out here.

A short description of series [1]: Inhibition of monoclonal antibody ADP358/HIV1 gp120 interaction at 80 mg/mL.
Series [2] can be described thus: Selectivity index, ratio of […] for human […] cells.
Series [3] concerns Human immunodeficiency virus 1. Description: Antiviral activity against HIV1 3B in human C8166 cells assessed as neutralization of virus infectivity treated prior infection measured after 60 mins at 37 degC. It counts as functional.
Series [4] can be described thus: Inhibition of HIV1 recombinant gp120/sCD4 interaction by ELISA. (In an ELISA, binding on a coated surface is turned into a signal by an enzyme label.)
Series [5] can be described thus: Cytotoxicity against human C8166 cells by XTT assay. The class given is cell-based. The conditions noted are these: read-out: TC50 (the source's name). A general note: Formazan colour is commonly taken as a measure of viable cells.
Series [6] has as its system Human immunodeficiency virus 1. Description: Antiviral activity against HIV1 MN in human C8166 cells assessed as reduction of antigen gp120 production by ELISA. It counts as functional, organism-based. The conditions noted are these: Human immunodeficiency virus 1, MN.
Series [7] in a line: Inhibition of monoclonal antibody ADP358/HIV1 gp120 interaction at 16 mg/mL.
A short description of series [8]: Inhibition of monoclonal antibody ADP358/HIV1 gp120 interaction at 400 mg/mL.
The nature of series [9]: Inhibition of monoclonal antibody ADP358/HIV1 gp120 interaction at 3.2 mg/mL.
Series [10] is described as follows: Inhibition of monoclonal antibody ADP358/HIV1 gp120 interaction at 0.8 mg/mL.
Series [11] is described as follows: Inhibition of monoclonal antibody ADP358/HIV1 gp120 interaction at 500 mg/mL.
Series [12] is described as follows: Inhibition of monoclonal antibody ADP358/HIV1 gp120 interaction at 100 mg/mL.
A short description of series [13]: Inhibition of monoclonal antibody ADP358/HIV1 gp120 interaction at 20 mg/mL.
Series [14] can be described thus: Inhibition of monoclonal antibody ADP358/HIV1 gp120 interaction at 4 mg/mL.

Converted amounts (≈) assume the structure as drawn.

`O=C1O[C@H]2[C@H](O)[C@@H](O)[C@H](CO)O[C@@H]2c2c1cc(O)c(O)c2O` [NORBERGENIN]: the inhibition in series [1] came to 69%; in series [7], 57%; in series [8], 84%; in series [9], 33%. Besides, the “Selectivity Index” value in series [2] was over 25. Besides, the Activity was 99% in [3] and “Dose-dependent effect” in series [4]. Further, the CC50 in series [5] is over 500 µg/mL. For the same molecule, the EC50 in [6] was 20 µg/mL (≈ 63.6 µM).
On to `COc1cc2c(c(OC)c1OC)[C@H]1O[C@@H](CO)[C@H](O)[C@@H](O)[C@@H]1OC2=O`, for which the “Selectivity Index” value in series [2] is reported as 1.25. Besides, the CC50 in [5] amounted to 250 µg/mL (≈ 702 µM). Also, the concentration for a half-maximal effect (EC50) in series [6] is 200 µg/mL (≈ 561 µM).
As for `COc1c(O)cc2c(c1O)[C@@H]1O[C@H](CO)[C@@H](O)[C@H](O)[C@H]1OC2=O` [BERGENIN], the inhibition in series [10] worked out at 0%; in [11] it was 92%; in series [12], 84%; in [13] it was 62%; in [14] it was 39%. For the same molecule, the “Selectivity Index” value in [2] is on record as over 25. For the same molecule, in series [5], the CC50 was over 1000 µg/mL. Besides, the EC50 in [6] amounted to 40 µg/mL (≈ 122 µM).

A word on the inhibition: it is the change of the read-out against control, counted positive when it falls. High values mean strong suppression, low ones little suppression. Usually EC50 stands for the concentration giving half of the maximal effect.
